# In US20210177808A1, “INJECTABLE ISOXAZOLINE PHARMACEUTICAL COMPOSITIONS AND THEIR USE AGAINST PARASITE INFESTATION” (Intervet Inc., priority 2017, published 2021):
# System: Ctenocephalides felis fleas
# Assay: Flea efficacy on dogs approximately 6 months after treatment (Example 4B)
# Assay type: in vivo
# Method: The results from additional dose characterization studies are summarized. These studies evaluated three doses (10, 15 and 20 mg/kg) in adult dogs. The injectable suspension formulations of fluralaner were prepared is indicated in Example 1J above. One study tested the effectiveness against Rhipicephalus sanguineus ticks (see Table 7). A second study evaluated efficacy against fleas at approximately 6 months after treatment was tested in dogs (see Table 8).
smiles,measurement,setting,value
"Cc1cc(C2=NOC(c3cc(Cl)cc(Cl)c3)(C(F)(F)F)C2)ccc1C(=O)NCC(=O)NCC(F)(F)F (centres unmarked) [fluralaner, 4-[5-(3,5-Dichlorophenyl)-5-trifluoromethyl-4,5-dihydroisoxazol-3-yl]-2-methyl-N-[(2,2,2-trifluoro-ethylcarbamoyl)-methyl]-benzamide]",Effectiveness in reducing live fleas on dogs,"all three doses (10, 15, 20 mg/kg), 6 months following treatment",100%
same,Predicted duration of efficacy against fleas,predicted because fleas are more sensitive to fluralaner than ticks,12 months
